# Test results published in BindingDB's records for doi:10.1007/s00213-002-1073-7 (WestfÄLische Wilhelms-Universit&Auml, 2002).
# How the values were obtained:
# [1] = molecular target: 5-hydroxytryptamine receptor 6 (Homo sapiens, UniProt P50406)
# [2] = molecular target: 5-hydroxytryptamine receptor 1D (Homo sapiens, UniProt P28221)
# [3] = molecular target: T1, 5-hydroxytryptamine receptor 3A (Homo sapiens, UniProt P46098)
# T1 sequence (P46098 whole entry): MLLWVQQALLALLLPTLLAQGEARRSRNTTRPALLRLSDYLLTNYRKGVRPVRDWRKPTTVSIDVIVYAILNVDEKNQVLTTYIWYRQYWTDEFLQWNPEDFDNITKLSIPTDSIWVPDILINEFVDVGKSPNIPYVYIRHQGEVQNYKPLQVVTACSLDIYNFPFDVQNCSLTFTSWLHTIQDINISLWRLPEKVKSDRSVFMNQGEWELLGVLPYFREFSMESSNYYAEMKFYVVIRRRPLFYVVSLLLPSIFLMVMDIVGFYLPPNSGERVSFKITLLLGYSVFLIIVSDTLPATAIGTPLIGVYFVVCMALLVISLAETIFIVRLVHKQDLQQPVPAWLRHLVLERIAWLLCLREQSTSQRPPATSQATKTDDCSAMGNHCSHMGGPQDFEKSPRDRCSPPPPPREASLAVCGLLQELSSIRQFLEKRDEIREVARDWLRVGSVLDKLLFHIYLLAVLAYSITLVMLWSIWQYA
# [4] = molecular target: Muscarinic acetylcholine receptor M3 (Homo sapiens, UniProt P20309)
# D(1A) dopamine receptor = D(1A) dopamine receptor (Homo sapiens, UniProt P21728)
# D(1B) dopamine receptor = D(1B) dopamine receptor (Homo sapiens, UniProt P21918)
# [5] = molecular target: T2, Muscarinic acetylcholine receptor M1 (Homo sapiens, UniProt P11229)
# T2 sequence (P11229 whole entry): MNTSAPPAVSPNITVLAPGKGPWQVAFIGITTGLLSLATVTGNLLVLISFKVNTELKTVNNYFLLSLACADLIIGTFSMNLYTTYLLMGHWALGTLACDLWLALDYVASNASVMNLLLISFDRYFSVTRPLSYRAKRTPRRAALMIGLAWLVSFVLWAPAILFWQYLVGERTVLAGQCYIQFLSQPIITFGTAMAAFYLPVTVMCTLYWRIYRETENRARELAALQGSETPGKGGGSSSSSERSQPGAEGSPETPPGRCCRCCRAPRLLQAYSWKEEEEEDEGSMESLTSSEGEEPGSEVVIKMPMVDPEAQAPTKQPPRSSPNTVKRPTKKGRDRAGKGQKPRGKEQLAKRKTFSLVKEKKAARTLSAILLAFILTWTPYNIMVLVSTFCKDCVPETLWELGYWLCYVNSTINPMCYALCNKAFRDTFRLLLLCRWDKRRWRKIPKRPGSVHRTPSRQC
# [6] = molecular target: T3, Alpha-1B adrenergic receptor (Homo sapiens, UniProt P35368)
# T3 sequence (P35368 whole entry): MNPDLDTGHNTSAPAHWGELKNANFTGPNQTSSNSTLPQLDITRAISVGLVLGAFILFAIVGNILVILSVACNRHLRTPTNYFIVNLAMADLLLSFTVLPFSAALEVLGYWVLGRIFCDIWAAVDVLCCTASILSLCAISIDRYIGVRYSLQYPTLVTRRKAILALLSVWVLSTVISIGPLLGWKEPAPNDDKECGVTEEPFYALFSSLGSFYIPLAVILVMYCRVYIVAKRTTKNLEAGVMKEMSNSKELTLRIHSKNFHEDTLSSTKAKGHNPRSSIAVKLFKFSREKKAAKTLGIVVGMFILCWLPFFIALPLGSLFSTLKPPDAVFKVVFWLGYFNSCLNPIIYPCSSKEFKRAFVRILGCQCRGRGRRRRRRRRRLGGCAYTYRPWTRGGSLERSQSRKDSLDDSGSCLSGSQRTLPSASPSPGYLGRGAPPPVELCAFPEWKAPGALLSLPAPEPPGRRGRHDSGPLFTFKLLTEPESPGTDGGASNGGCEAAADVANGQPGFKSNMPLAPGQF
# Histamine H1 receptor = Histamine H1 receptor (Rattus norvegicus, UniProt P31390)
# [7] = molecular target: T4, Muscarinic acetylcholine receptor M5 (Homo sapiens, UniProt P08912)
# T4 sequence (P08912 whole entry): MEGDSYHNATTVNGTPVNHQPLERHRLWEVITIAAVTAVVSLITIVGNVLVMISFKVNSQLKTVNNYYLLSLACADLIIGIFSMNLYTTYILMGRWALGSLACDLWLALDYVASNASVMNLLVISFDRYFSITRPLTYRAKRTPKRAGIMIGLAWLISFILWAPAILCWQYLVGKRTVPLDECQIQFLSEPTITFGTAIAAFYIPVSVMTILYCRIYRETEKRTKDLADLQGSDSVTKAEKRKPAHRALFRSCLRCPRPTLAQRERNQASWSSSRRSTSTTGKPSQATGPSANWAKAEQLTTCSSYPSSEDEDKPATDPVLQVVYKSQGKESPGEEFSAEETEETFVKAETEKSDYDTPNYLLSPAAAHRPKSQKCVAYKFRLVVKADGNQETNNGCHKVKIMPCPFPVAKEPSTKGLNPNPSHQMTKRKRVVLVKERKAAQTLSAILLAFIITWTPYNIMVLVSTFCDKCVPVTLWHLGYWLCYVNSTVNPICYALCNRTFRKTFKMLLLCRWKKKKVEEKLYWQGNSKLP
# [8] = molecular target: Beta-2 adrenergic receptor (Rattus norvegicus, UniProt P10608)
# Beta-2 adrenergic receptor, sequence (P10608 whole entry): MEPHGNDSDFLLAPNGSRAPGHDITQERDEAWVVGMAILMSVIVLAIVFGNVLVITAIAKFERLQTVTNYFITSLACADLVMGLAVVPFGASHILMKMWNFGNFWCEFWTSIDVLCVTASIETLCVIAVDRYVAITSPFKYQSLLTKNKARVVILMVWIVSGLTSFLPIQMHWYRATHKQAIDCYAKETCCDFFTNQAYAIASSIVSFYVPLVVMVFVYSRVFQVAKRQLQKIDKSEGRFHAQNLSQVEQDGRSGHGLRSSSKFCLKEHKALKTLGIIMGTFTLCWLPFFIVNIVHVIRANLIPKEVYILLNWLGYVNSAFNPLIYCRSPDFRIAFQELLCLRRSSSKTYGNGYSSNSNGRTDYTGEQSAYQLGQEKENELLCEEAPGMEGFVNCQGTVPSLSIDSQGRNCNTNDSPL
# Histamine H1 receptor, sequence (P31390 whole entry): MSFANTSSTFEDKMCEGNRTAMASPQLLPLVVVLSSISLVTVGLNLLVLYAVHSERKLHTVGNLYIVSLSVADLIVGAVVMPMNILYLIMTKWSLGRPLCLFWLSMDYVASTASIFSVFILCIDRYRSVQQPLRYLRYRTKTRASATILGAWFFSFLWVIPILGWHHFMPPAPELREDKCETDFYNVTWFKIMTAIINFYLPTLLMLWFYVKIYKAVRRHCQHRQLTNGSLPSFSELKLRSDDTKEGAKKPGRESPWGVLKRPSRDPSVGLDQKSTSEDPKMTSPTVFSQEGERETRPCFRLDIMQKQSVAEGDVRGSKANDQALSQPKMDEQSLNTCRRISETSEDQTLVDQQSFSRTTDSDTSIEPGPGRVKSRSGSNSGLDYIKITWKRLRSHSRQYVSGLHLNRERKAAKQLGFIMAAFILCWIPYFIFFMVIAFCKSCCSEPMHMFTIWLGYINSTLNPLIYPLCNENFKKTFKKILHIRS
# D(1B) dopamine receptor, sequence (P21918 whole entry): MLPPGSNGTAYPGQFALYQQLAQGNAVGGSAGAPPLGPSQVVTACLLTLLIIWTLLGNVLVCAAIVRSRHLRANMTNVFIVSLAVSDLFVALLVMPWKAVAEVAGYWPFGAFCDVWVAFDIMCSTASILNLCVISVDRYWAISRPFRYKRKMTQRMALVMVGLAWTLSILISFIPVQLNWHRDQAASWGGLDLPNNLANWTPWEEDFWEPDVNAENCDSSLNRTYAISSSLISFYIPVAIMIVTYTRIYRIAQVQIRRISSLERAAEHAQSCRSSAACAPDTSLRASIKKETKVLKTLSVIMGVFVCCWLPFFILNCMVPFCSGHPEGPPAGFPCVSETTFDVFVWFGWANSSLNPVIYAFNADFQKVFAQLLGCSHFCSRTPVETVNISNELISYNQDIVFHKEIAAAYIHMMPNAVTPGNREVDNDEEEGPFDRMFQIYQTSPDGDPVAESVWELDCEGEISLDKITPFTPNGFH
# Muscarinic acetylcholine receptor M3, sequence (P20309 whole entry): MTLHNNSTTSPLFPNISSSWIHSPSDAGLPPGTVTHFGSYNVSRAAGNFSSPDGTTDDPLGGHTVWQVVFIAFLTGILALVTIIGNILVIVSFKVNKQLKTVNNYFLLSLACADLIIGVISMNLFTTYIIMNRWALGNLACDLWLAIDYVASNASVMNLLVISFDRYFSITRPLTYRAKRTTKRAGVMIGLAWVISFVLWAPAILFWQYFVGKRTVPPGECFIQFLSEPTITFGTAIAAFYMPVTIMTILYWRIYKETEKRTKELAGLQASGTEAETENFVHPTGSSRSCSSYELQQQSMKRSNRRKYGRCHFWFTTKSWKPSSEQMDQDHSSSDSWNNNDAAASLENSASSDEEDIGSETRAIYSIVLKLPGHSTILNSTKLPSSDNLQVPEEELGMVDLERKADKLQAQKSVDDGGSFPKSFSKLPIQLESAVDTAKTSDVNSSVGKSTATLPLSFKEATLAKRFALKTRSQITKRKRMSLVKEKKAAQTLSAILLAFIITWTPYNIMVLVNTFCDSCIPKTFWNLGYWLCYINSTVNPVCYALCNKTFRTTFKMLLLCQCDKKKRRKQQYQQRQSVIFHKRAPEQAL
# D(1A) dopamine receptor, sequence (P21728 whole entry): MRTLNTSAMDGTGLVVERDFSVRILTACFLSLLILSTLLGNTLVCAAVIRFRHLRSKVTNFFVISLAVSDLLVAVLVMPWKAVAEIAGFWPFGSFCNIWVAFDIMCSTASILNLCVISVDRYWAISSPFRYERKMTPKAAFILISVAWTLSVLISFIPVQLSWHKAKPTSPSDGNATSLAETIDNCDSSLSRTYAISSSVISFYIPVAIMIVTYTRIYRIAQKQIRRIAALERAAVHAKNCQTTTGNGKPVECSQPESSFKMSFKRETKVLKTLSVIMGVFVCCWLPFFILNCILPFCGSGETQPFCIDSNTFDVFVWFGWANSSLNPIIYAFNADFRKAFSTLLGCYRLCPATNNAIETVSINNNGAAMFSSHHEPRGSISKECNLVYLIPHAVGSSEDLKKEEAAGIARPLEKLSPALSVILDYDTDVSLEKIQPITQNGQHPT
# 5-hydroxytryptamine receptor 6, sequence (P50406 whole entry): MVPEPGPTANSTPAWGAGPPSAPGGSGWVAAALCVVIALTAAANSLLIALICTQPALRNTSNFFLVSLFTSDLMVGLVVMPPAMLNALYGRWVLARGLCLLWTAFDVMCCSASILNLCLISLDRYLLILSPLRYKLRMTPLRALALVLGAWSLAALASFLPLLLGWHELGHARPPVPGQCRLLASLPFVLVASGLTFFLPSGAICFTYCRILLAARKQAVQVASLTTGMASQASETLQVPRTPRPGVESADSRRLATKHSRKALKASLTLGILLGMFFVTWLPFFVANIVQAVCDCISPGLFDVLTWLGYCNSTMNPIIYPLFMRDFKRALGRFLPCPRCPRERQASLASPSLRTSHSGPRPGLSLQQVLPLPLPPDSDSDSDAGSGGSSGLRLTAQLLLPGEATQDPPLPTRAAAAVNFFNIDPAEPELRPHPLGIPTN
# 5-hydroxytryptamine receptor 1D, sequence (P28221 whole entry): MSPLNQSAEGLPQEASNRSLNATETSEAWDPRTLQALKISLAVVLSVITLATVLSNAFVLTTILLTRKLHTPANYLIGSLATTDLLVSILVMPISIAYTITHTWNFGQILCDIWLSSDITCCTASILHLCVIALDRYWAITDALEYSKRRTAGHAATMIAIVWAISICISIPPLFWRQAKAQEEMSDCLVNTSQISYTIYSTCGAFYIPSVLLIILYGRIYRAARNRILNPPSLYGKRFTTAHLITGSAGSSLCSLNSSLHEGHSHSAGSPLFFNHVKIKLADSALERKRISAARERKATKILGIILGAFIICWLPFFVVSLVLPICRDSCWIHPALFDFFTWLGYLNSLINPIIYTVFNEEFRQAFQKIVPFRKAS
SMILES,Ki [1] [µM],Ki [2] [µM],Ki [3] [µM],Ki [4] [µM],Ki (D(1A) dopamine receptor) [µM],Ki (D(1B) dopamine receptor) [µM],Ki [5] [µM],Ki [6] [µM],Ki (Histamine H1 receptor) [µM],Ki [7] [µM],Ki [8] [µM]
O=c1cc(O)cc2oc(-c3ccc(O)c(-c4c(O)cc(O)c5c(=O)cc(-c6ccc(O)cc6)oc45)c3)cc(O)c1-2,> 10,> 10,> 10,> 10,> 10,> 10,> 10,> 10,> 10,> 10,> 10
C[C@@H]1O[C@@H](Oc2c(-c3ccc(O)c(O)c3)oc3cc(O)cc(=O)c-3c2O)[C@H](O)[C@H](O)[C@H]1O,> 10,> 10,> 10,> 10,> 10,> 10,> 10,> 10,> 10,> 10,> 10
"O=c1c(O)c(-c2ccc(O)c(O)c2)oc2cc(O)cc(O)c12 [2-(3,4-dihydroxyphenyl)-3,5,7-trihydroxy-chromone;hydrate]",> 10,> 10,> 10,> 10,> 10,> 10,> 10,> 10,> 10,> 10,> 10

# Further lines, results first:
Ki [1] [µM],Ki [2] [µM],Ki [3] [µM],Ki [4] [µM],Ki (D(1A) dopamine receptor) [µM],Ki (D(1B) dopamine receptor) [µM],Ki [5] [µM],Ki [6] [µM],Ki (Histamine H1 receptor) [µM],Ki [7] [µM],Ki [8] [µM],SMILES
> 10,> 10,> 10,> 10,0.596,> 10,> 10,> 10,> 10,> 10,> 10,CC(C)=CCC[C@]1(C)[C@@H](CC=C(C)C)C[C@]2(CC=C(C)C)C(=O)C(CC=C(C)C)C(=O)[C@]1(C(=O)C(C)C)C2=O (stereo partly specified)
> 10,> 10,> 10,> 10,> 10,> 10,> 10,> 10,> 10,0.0351,> 10,C[C@@H]1O[C@@H](OC[C@H]2O[C@@H](Oc3c(-c4ccc(O)c(O)c4)oc4cc(O)cc(O)c4c3=O)[C@H](O)[C@@H](O)[C@@H]2O)[C@H](O)[C@H](O)[C@H]1O [3-Rhamnoglucosylquercetin]
> 10,> 10,> 10,> 10,> 10,> 10,> 10,> 10,> 10,> 10,> 10,O=c1cc(O)cc2oc(-c3ccc(O)c(O)c3)c(OC3OC(CO)C(O)C(O)C3O)c(O)c1-2 (stereo unspecified) [NSC_5318390]
